Activity calls are given as the source filed them. For most assays here, no stated cut-off is given here; in the data, actives have a measured Kd and inactives only a lower limit.
Biological target: Fibroblast growth factor receptor 1 (Homo sapiens, UniProt P11362)
Sequence (P11362 whole entry): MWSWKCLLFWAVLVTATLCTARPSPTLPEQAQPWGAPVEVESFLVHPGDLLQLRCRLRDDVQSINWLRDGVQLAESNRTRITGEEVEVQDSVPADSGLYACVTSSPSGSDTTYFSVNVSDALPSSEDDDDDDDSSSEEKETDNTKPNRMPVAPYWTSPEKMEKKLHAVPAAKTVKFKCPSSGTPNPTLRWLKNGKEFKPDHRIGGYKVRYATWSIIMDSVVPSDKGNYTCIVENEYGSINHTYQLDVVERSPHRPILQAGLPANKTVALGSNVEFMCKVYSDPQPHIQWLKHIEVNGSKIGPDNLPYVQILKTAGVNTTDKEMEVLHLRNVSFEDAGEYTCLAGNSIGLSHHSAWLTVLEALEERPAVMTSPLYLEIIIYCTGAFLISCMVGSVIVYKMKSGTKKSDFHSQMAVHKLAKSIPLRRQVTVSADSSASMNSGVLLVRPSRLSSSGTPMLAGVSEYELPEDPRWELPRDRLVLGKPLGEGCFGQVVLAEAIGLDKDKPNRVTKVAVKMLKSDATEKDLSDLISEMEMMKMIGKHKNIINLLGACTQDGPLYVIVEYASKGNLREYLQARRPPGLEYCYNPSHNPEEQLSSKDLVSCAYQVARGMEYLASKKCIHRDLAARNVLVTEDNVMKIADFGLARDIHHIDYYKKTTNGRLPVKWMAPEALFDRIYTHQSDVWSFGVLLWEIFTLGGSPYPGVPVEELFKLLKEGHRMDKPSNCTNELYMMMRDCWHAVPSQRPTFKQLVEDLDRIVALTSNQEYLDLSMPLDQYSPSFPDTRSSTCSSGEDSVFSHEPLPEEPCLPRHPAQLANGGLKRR

Which Kd does the source give for `CN(C)C(=O)c1cc2cnc(Nc3ccc(N4CCNCC4)cn3)nc2n1C1CCCC1` [RIBOCICLIB] here?
Its Kd is > 30 µM (inactive).

For `COc1cc(OC)c(/C=C/S(=O)(=O)Cc2ccc(OC)c(NCC(=O)O)c2)c(OC)c1` [RIGOSERTIB], which Kd is on record?
The Kd was > 30 µM (inactive).

For `CNC(=O)CN1CCC(Oc2cc3c(Nc4cccc(Cl)c4F)ncnc3cc2OC)CC1` [SAPITINIB], which Kd is on record?
Its Kd is > 30 µM (inactive).

Which Kd does the source give for `CN1CCC(CNc2ccc3ncc(-c4cccc(OC(F)(F)F)c4)n3n2)CC1` [SGI-1776] here?
The Kd was > 30 µM (inactive).

Biological target: DNA topoisomerase 2-beta (Homo sapiens, UniProt Q02880)
Sequence (Q02880 whole entry): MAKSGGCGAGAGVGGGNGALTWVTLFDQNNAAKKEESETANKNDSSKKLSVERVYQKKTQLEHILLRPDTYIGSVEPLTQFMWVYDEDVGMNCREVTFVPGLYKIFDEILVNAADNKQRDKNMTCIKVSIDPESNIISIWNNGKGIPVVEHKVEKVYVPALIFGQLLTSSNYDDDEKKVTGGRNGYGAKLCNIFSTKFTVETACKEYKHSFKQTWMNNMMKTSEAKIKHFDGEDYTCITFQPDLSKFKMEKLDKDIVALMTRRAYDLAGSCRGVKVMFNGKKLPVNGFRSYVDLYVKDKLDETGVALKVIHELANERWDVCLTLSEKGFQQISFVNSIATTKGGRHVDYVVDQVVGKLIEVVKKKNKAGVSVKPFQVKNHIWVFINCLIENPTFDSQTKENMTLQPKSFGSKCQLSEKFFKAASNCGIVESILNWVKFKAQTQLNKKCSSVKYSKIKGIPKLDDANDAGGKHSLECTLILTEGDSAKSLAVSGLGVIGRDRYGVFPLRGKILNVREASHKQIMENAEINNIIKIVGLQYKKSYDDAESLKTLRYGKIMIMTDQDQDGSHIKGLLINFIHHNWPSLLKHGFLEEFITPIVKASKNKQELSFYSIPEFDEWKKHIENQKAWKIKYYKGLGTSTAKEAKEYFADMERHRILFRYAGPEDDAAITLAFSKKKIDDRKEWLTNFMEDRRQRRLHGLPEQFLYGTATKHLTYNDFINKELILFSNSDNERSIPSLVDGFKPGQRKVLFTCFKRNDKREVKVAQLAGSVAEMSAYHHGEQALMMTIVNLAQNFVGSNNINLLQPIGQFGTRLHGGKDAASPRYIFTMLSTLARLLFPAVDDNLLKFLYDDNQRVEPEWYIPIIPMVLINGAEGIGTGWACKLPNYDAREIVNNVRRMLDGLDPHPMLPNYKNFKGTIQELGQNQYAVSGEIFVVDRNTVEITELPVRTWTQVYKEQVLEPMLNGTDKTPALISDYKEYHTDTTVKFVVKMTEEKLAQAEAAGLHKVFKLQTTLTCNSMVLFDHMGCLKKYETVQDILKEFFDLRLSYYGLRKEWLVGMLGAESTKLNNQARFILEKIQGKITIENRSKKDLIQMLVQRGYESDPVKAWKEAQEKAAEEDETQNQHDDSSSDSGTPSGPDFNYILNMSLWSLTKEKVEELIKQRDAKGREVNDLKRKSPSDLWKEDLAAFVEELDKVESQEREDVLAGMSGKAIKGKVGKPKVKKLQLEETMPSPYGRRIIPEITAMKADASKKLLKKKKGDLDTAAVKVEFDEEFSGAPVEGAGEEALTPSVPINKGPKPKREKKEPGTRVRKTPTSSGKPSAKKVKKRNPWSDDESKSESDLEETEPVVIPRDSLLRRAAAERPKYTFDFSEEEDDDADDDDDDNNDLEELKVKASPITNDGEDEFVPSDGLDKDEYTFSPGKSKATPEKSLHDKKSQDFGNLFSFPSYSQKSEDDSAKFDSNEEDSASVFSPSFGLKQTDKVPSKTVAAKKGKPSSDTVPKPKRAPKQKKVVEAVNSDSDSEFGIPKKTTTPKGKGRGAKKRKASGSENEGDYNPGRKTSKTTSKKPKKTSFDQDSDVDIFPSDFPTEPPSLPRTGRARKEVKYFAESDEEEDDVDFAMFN

Which Kd does the source give for `CN(C)C(=O)c1cc2cnc(Nc3ccc(N4CCNCC4)cn3)nc2n1C1CCCC1` [RIBOCICLIB] here?
The Kd was > 30 µM (inactive).

Which Kd does the source give for `COc1cc(OC)c(/C=C/S(=O)(=O)Cc2ccc(OC)c(NCC(=O)O)c2)c(OC)c1` [RIGOSERTIB] here?
Its Kd is > 30 µM (inactive).

How did the Kd turn out when `CNC(=O)CN1CCC(Oc2cc3c(Nc4cccc(Cl)c4F)ncnc3cc2OC)CC1` [SAPITINIB] was run?
The Kd was > 30 µM (inactive).

`CN1CCC(CNc2ccc3ncc(-c4cccc(OC(F)(F)F)c4)n3n2)CC1` [SGI-1776] was tested. Which Kd did it give?
The Kd was > 30 µM (inactive).

Biological target: T1, NUAK family SNF1-like kinase 2 (Homo sapiens, UniProt Q9H093)
T1 sequence (Q9H093 whole entry): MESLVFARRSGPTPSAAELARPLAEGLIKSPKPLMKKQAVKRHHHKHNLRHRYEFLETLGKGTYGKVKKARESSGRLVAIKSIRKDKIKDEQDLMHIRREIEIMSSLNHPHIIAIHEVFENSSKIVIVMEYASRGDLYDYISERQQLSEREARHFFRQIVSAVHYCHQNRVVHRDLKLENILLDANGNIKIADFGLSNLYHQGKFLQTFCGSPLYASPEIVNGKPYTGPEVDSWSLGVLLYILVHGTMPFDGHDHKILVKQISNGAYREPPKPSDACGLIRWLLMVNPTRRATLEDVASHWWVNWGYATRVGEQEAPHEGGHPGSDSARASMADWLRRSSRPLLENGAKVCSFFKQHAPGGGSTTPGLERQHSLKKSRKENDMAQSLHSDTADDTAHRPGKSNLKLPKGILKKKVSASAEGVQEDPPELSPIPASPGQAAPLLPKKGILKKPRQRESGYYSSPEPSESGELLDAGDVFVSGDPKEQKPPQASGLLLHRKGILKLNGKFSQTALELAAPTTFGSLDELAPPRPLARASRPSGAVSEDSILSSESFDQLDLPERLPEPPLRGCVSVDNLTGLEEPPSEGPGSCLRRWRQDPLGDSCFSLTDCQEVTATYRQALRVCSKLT

With `CN(C)C(=O)c1cc2cnc(Nc3ccc(N4CCNCC4)cn3)nc2n1C1CCCC1` [RIBOCICLIB] as the compound, how does the Kd read?
Its Kd is > 30 µM (inactive).

Which Kd does the source give for `COc1cc(OC)c(/C=C/S(=O)(=O)Cc2ccc(OC)c(NCC(=O)O)c2)c(OC)c1` [RIGOSERTIB] here?
The Kd was > 30 µM (inactive).

`CNC(=O)CN1CCC(Oc2cc3c(Nc4cccc(Cl)c4F)ncnc3cc2OC)CC1` [SAPITINIB] was tested. Which Kd did it give?
The Kd was > 30 µM (inactive).

`CN1CCC(CNc2ccc3ncc(-c4cccc(OC(F)(F)F)c4)n3n2)CC1` [SGI-1776] was tested. Which Kd did it give?
The Kd was > 30 µM (inactive).

Biological target: Mitogen-activated protein kinase kinase kinase kinase 4 (Homo sapiens, UniProt O95819)
Sequence (O95819 whole entry): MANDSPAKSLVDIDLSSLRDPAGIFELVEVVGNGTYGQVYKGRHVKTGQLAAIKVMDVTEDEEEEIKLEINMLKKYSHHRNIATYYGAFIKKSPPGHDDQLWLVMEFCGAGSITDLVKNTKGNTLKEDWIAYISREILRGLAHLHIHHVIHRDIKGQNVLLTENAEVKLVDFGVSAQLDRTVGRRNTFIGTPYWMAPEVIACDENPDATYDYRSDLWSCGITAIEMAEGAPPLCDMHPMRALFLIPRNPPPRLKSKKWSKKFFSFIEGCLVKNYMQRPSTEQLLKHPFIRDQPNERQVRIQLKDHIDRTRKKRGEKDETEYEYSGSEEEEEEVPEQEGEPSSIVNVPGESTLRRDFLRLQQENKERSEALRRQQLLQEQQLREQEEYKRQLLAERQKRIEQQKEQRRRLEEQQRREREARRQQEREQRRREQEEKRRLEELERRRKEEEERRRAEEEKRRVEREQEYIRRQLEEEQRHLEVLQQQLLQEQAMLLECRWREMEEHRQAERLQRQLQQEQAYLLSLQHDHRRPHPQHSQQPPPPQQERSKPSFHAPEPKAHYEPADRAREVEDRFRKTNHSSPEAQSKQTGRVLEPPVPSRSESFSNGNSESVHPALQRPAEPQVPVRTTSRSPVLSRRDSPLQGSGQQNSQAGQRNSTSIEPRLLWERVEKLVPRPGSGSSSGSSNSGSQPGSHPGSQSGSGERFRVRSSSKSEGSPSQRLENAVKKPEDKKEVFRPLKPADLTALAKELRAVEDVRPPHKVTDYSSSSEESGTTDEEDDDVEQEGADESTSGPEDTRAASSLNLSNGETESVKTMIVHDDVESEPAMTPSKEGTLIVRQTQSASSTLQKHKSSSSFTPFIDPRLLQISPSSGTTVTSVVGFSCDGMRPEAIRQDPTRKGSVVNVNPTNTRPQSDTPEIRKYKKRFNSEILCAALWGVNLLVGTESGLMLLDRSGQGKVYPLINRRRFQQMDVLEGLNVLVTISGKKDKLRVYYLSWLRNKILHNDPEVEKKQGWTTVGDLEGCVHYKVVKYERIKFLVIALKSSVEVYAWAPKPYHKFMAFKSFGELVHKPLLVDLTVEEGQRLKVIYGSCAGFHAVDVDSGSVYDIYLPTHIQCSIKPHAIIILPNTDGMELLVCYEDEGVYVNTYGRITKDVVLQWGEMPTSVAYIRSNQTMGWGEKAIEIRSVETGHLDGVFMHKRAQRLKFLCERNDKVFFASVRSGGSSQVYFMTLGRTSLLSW

How did the Kd turn out when `CN(C)C(=O)c1cc2cnc(Nc3ccc(N4CCNCC4)cn3)nc2n1C1CCCC1` [RIBOCICLIB] was run?
The Kd was > 30 µM (inactive).

Which Kd does the source give for `COc1cc(OC)c(/C=C/S(=O)(=O)Cc2ccc(OC)c(NCC(=O)O)c2)c(OC)c1` [RIGOSERTIB] here?
Its Kd is > 30 µM (inactive).

Which Kd does the source give for `CNC(=O)CN1CCC(Oc2cc3c(Nc4cccc(Cl)c4F)ncnc3cc2OC)CC1` [SAPITINIB] here?
Its Kd is > 30 µM (inactive).

With `CN1CCC(CNc2ccc3ncc(-c4cccc(OC(F)(F)F)c4)n3n2)CC1` [SGI-1776] as the compound, how does the Kd read?
Its Kd is > 30 µM (inactive).

Biological target: T2, Acyl-CoA dehydrogenase family member 10 (Homo sapiens, UniProt Q6JQN1)
T2 sequence (Q6JQN1 whole entry): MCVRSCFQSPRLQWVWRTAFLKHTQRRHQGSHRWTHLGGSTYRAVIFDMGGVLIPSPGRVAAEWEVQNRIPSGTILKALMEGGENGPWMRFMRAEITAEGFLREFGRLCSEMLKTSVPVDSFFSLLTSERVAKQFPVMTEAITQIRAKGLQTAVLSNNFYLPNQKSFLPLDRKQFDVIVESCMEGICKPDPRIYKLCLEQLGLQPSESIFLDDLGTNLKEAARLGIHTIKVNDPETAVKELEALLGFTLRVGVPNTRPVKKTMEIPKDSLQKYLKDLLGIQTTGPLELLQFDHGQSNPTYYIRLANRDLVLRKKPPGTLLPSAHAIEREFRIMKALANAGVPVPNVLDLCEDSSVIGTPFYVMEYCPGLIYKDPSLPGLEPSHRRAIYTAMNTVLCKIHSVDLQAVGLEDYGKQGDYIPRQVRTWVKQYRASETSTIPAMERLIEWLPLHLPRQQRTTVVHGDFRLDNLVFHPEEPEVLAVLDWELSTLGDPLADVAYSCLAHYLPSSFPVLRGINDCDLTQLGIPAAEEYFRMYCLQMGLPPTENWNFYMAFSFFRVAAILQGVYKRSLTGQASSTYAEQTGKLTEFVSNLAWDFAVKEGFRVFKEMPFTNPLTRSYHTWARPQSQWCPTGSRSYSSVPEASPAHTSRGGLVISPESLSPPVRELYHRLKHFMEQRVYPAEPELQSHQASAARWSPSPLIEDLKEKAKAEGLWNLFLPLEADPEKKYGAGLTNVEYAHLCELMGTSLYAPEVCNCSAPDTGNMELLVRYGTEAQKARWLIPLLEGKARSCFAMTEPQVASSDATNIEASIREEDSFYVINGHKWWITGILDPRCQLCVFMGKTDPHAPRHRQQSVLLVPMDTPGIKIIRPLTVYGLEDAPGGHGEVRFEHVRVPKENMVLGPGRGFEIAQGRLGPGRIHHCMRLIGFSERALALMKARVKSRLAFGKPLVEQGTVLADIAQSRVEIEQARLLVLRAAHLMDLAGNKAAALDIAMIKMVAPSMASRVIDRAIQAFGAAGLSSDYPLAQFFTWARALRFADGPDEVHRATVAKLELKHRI

How did the Kd turn out when `CN(C)C(=O)c1cc2cnc(Nc3ccc(N4CCNCC4)cn3)nc2n1C1CCCC1` [RIBOCICLIB] was run?
Its Kd is > 30 µM (inactive).

How did the Kd turn out when `COc1cc(OC)c(/C=C/S(=O)(=O)Cc2ccc(OC)c(NCC(=O)O)c2)c(OC)c1` [RIGOSERTIB] was run?
Its Kd is > 30 µM (inactive).

`CNC(=O)CN1CCC(Oc2cc3c(Nc4cccc(Cl)c4F)ncnc3cc2OC)CC1` [SAPITINIB] was tested. Which Kd did it give?
The Kd was > 30 µM (inactive).

For `CN1CCC(CNc2ccc3ncc(-c4cccc(OC(F)(F)F)c4)n3n2)CC1` [SGI-1776], which Kd is on record?
The Kd was > 30 µM (inactive).

Biological target: Serine/threonine-protein kinase B-raf (Homo sapiens, UniProt P15056)
Sequence (P15056 whole entry): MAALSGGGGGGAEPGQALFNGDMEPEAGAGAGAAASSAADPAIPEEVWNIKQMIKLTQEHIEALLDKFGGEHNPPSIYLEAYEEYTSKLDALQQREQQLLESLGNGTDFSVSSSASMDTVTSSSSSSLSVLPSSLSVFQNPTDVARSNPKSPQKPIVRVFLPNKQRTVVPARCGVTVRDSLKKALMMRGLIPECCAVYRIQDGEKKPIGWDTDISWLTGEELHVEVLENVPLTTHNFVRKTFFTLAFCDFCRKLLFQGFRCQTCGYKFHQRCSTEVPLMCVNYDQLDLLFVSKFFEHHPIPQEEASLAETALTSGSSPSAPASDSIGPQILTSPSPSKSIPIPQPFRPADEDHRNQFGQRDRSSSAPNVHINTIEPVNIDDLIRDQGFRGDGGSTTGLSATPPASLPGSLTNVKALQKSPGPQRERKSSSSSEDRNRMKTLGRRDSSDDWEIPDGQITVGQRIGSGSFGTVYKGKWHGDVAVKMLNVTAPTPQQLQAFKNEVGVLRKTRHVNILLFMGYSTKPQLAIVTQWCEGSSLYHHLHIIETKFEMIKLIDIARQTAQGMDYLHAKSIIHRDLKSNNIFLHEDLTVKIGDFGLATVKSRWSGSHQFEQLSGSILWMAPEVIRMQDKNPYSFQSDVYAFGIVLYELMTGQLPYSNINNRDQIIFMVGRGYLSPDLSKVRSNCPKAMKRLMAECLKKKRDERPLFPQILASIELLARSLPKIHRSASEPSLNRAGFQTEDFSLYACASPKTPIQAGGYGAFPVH

Which Kd does the source give for `CN(C)C(=O)c1cc2cnc(Nc3ccc(N4CCNCC4)cn3)nc2n1C1CCCC1` [RIBOCICLIB] here?
The Kd was > 30 µM (inactive).

Which Kd does the source give for `COc1cc(OC)c(/C=C/S(=O)(=O)Cc2ccc(OC)c(NCC(=O)O)c2)c(OC)c1` [RIGOSERTIB] here?
The Kd was > 30 µM (inactive).

With `CNC(=O)CN1CCC(Oc2cc3c(Nc4cccc(Cl)c4F)ncnc3cc2OC)CC1` [SAPITINIB] as the compound, how does the Kd read?
Its Kd is > 30 µM (inactive).

How did the Kd turn out when `CN1CCC(CNc2ccc3ncc(-c4cccc(OC(F)(F)F)c4)n3n2)CC1` [SGI-1776] was run?
The Kd was > 30 µM (inactive).

Biological target: LIM domain kinase 1 (Homo sapiens, UniProt P53667)
Sequence (P53667 whole entry, the tested form may be a part): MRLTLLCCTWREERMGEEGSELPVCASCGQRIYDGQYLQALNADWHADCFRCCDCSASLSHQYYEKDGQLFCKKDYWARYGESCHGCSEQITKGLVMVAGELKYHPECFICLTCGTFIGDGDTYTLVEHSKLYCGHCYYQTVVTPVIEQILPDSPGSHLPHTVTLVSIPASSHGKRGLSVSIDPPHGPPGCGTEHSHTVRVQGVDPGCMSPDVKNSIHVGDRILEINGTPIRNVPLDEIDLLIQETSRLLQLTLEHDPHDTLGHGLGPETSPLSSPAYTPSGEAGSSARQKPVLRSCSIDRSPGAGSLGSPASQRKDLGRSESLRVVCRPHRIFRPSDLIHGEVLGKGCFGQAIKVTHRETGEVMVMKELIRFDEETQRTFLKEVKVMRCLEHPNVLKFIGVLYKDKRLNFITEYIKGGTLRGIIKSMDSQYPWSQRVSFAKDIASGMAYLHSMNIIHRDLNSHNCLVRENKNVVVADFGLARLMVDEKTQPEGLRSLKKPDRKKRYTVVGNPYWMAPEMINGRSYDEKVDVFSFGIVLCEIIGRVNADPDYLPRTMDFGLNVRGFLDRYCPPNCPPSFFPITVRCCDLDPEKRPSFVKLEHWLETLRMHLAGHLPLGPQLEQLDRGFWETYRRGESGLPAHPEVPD

`CN(C)C(=O)c1cc2cnc(Nc3ccc(N4CCNCC4)cn3)nc2n1C1CCCC1` [RIBOCICLIB] was tested. Which Kd did it give?
Its Kd is > 30 µM (inactive).

How did the Kd turn out when `COc1cc(OC)c(/C=C/S(=O)(=O)Cc2ccc(OC)c(NCC(=O)O)c2)c(OC)c1` [RIGOSERTIB] was run?
The Kd was > 30 µM (inactive).

How did the Kd turn out when `CNC(=O)CN1CCC(Oc2cc3c(Nc4cccc(Cl)c4F)ncnc3cc2OC)CC1` [SAPITINIB] was run?
The Kd was > 30 µM (inactive).

How did the Kd turn out when `CN1CCC(CNc2ccc3ncc(-c4cccc(OC(F)(F)F)c4)n3n2)CC1` [SGI-1776] was run?
Its Kd is > 30 µM (inactive).

Biological target: T3, Serine/threonine-protein kinase 4 (Homo sapiens, UniProt Q13043)
T3 sequence (Q13043 whole entry): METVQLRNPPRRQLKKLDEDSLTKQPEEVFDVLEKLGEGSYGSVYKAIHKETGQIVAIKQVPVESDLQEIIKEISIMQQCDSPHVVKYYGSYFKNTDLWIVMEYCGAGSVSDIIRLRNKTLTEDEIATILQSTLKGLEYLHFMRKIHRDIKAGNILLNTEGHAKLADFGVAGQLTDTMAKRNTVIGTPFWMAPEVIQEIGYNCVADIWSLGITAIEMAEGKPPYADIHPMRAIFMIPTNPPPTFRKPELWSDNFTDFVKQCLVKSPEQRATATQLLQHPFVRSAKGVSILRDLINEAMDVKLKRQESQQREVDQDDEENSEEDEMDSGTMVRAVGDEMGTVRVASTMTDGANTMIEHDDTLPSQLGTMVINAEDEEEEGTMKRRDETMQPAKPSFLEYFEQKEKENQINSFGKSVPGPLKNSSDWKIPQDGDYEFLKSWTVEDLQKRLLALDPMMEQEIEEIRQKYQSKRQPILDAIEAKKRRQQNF

With `CN(C)C(=O)c1cc2cnc(Nc3ccc(N4CCNCC4)cn3)nc2n1C1CCCC1` [RIBOCICLIB] as the compound, how does the Kd read?
The Kd was > 30 µM (inactive).

Which Kd does the source give for `COc1cc(OC)c(/C=C/S(=O)(=O)Cc2ccc(OC)c(NCC(=O)O)c2)c(OC)c1` [RIGOSERTIB] here?
The Kd was > 30 µM (inactive).

For `CNC(=O)CN1CCC(Oc2cc3c(Nc4cccc(Cl)c4F)ncnc3cc2OC)CC1` [SAPITINIB], which Kd is on record?
Its Kd is > 30 µM (inactive).

`CN1CCC(CNc2ccc3ncc(-c4cccc(OC(F)(F)F)c4)n3n2)CC1` [SGI-1776] was tested. Which Kd did it give?
Its Kd is > 30 µM (inactive).

Source: ChEMBL document CHEMBL3991601, “The target landscape of clinical kinase drugs” (Science, 2017)
